Where two headings read alike, the source gives them in different places. Non-standard residues stand in square brackets, D forms with d. Residues, ends and D or L forms follow the SMILES beside them. dPhe(4-Cl) = N[C@H](Cc1ccc(Cl)cc1)C(=O)O; d2Nal = N[C@H](Cc1ccc2ccccc2c1)C(=O)O; dCit = NC(=O)NCCC[C@@H](N)C(=O)O; d3Pal = N[C@H](Cc1cccnc1)C(=O)O
How the values were obtained:
[1] = test system: patients with rheumatoid arthritis; conditions: AGRA study, 5 days, Kass et al. 2014; cited from earlier work
[2] = test system: patient with seropositive rheumatoid arthritis; assay: Treatment of rheumatoid arthritis using Cetrorelix; assay type: in vivo, human; conditions: RA patient
Experimental: • person with seropositive rheumatoid arthritis with disease duration of 10 years. • Fulfilled ACR 2010 classification criteria for rheumatoid arthritis. Experimental Treatment • Had tried all therapies available previously without effect. • Offered experimental GnRH antagonist therapy, Cetrorelix in 0.5 mg sc daily in October 2014, then 0.75 mg sc daily in December 2014.

[3] = test system: patient with osteoarthritis of both knees; assay: Intra-articular GnRH inhibiting treatment in osteoarthritis; assay type: in vivo, human; conditions: intra-articular 1 mg into both knees, 2 week post injection
From the text: • person with osteoarthritis of both knees diagnosed by x-ray 10 years ago • Has had synovitis secondary to osteoarthritis in both knees for the last month, confirmed by synovitis on ultrasound. Experimental Treatment • In order to treat the secondary inflammation as a result of their knee osteoarthritis, they are offered intra-articular GnRH antagonist treatment, for example Cetrorelix lmg injected into both knees. Subcutaneous Cetrorelix for injection can be used. Assessment of Response • Before and 2 week post injection ultrasound images are taken to show a decrease in synovitis in the knee joint.

[4] = test system: patients with active longstanding RA; assay: Double-blinded randomised study of cetrorelix vs placebo in RA (NCT00667758), serum P1NP; assay type: in vivo, human
Experimental: In this double-blinded, single-site study in Norway (ClinicalTrials.gov NCT00667758), 99 patients with active longstanding RA, were randomised to predefined intention-to-treat populations using computer-generated allocation (1:1) in dynamic blocks stratified for sex. Patients were assigned to subcutaneous cetrorelix (n=48) (5 mg days 1-2, 3 mg days 3-5) or placebo (n=51). P1NP was measured on day 10. We investigated serum P1NP between groups, a predefined secondary endpoint. Detailed efficacy and safety data are presented separately.

mice = assay: Animal study of preventing age related inflammation; assay type: in vivo; conditions: 0.5 mg/kg daily with or without gonadal hormone replacement, vs placebo
Experimental: An animal study is conducted with 40 fertile female mice aged approximately 6-20 months in a control group (group 1) receiving placebo, 40 age and sex matched mice receiving a drug that reduces the activity of GnRH (group 2), such as Cetrorelix 0.5 mg/kg daily, and 40 age and sex matched mice receiving the same GnRH inhibitor as group 2, but with the additional replacement of gonadal hormone (oestrogen) to age adjusted pre-chosen levels. All mice are followed prospectively, and evaluated for systemic inflammation markers, atherosclerosis, osteoporosis, LDL, and age at death. The same three interventions and assessments are carried out in three groups of male mice with 40 male mice in each group, aged approximately 6-20 months, replacing the gonadal hormone testosterone to pre-chosen levels in group 3. Mice treated with a drug that reduces the activity of GnRH, such as Cetrorelix 0.5 mg/kg daily with or without the replacement of gonadal hormone (preferably with) reach a higher age at death compared with mice in the placebo groups. These mice also show less atherosclerosis, osteoporosis and systemic inflammation than mice in the placebo groups.

[5] = test system: patient with systemic sclerosis; conditions: Cyclophosphamide trial, literature, cited from earlier work
[6] = test system: patient with seropositive rheumatoid arthritis; assay: Example treatment of RA using oral GnRH antagonists (DAS); assay type: in vivo, human
Experimental: • person with seropositive rheumatoid arthritis with disease duration of 10 years. • Fulfills ACR 2010 classification criteria for rheumatoid arthritis. Experimental Treatment • Is offered experimental GnRH antagonist therapy, Elagolix 550 mg daily for 12 weeks.
• person with seropositive rheumatoid arthritis with disease duration of 10 years. • Fulfills ACR 2010 classification criteria for rheumatoid arthritis. Experimental Treatment • Is offered experimental GnRH antagonist therapy, Relugolix 250 mg daily for 12 weeks.
• person with seropositive rheumatoid arthritis with disease duration of 20 years. • Fulfills ACR 2010 classification criteria for rheumatoid arthritis. Experimental Treatment • Treated with a spiroindoline derivative as a GnRH antagonist orally 200 mg daily for 12 weeks.

[7] = test system: patient with spondyloarthritis; assay: Example treatment of spondyloarthritis using Relugolix; assay type: in vivo, human
Experimental: • person with spondyloarthritis with disease duration of 5 years. Experimental Treatment • Is offered experimental GnRH antagonist therapy, Relugolix 400 mg daily for 12 weeks. Assessment of Response at 4 Months • Disease activity in ankylosing spondylitis/spondyloarthritis is measured by the BASDAI score. Their BASDAI is 5 at baseline.

[8] = test system: patient with systemic lupus erythematosus; assay: Previous therapies for pain in extremities of the lupus patient; assay type: in vivo, human; conditions: previous therapies before degarelix
Experimental: Due to their painful condition, they have been followed up by a pain clinic. They were offered a tricyclic antidepressant, amitriptyline 25 mg in March 2014 for their painful condition.

[9] = test system: patient with lithium induced psoriasis; conditions: 15 patients with psoriasis taking lithium, pretreatment, literature; cited from earlier work
[10] = test system: patient with ankylosing spondylitis; assay: Treatment of ankylosing spondylitis patient (BASDAI, laboratory variables); assay type: in vivo, human; conditions: AS patient
From the text: Diagnosed with ankylosing spondylitis in 1984, HLAB27 positive, with repeated iridocyclitis. Used non-steroidal anti-inflammatory drugs previously. They were offered the TNF-alpha inhibitor Golilimumab in 2010. Their disease activity score was 8.9 in October 2010 (see below for explanation of disease activity score) on initiating Golilimumab; by the June 2012 this score had reduced to 6.6, but by May 2013 the effect had worn off and their score was 7.6. May 2013, they initiated Enbrel treatment, but their disease activity increased from 7.6 to 8.3. Due to their poor response to TNF-alpha therapy, they were offered the GnRH antagonist Degarelix in September 2014.
Disease activity in ankylosing spondylitis is measured by the BASDAI (Bath Ankylosing Spondylitis Disease Activity Index1), has been extensively validated in clinical trials, 2, 3 and is one of the most commonly used outcome measures in clinical trials. This is a componsite index that evaluates fatigue, axial and peripheral pain, stiffness and enthesopathy. Their BASDAI was at 8.7 at baseline. In September 2014 they received their first dose of Degarelix 240 mg sc. By 2 weeks, their BASDAI had reduced to 6.8, and by 6 weeks it had reduced to 5.8. This is the lowest BASDAI score they have ever had since we first started using this method of assessment 4 years ago in 2010. Their morning stiffness lasted 4 hours at baseline, by 6 weeks their morning stiffness had reduced to 2 hours. They had their second dose of Degarelix 80 mg s.c in October 2014. Lumbar flexion and maximum arm abduction were increased after 6 weeks of treatment.
Response to therapy in clinical practice is defined as improvement of 2 units or 50% on a 0-10 scale of the BASDAI, and expert opinion that the treatment should be continued. Their reduction by 6 weeks was 2.9 units, and 7.1 units with an 82% BASDAI score improvement by 9 weeks, and we shall continue treatment. A BASDAI 50% improvement is defined as a major clinical response. […] For comparison, approximately 50-60% of patients achieve a BASDAI 50 by 12 weeks on TNF inhibitors (4). Their ESR has decreased from 46 mm to 23 mm, which is their lowest ESR reading in 19 years. […] By 9 weeks of GnRH antagonist therapy, their kidney function has normalized, and fasting glucose reduced from 7.4 to 6.5 mmol/L. By 3 months, the effect on their ankylosing spondylitis remained, creatinine was at 98 umol/L, with a glomerular filtration rate of 66 ml/min/1.73 m2 in December 2014.

patient with colitis = conditions: week 2 after an infliximab infusion, literature; cited from earlier work

Compound: CC(=O)N[C@H](Cc1ccc2ccccc2c1)C(=O)N[C@H](Cc1ccc(Cl)cc1)C(=O)N[C@H](Cc1cccnc1)C(=O)N[C@@H](CO)C(=O)N[C@@H](Cc1ccc(O)cc1)C(=O)N[C@H](CCCNC(N)=O)C(=O)N[C@@H](CC(C)C)C(=O)N[C@@H](CCCNC(=N)N)C(=O)N1CCC[C@H]1C(=O)N[C@H](C)C(N)=O [Cetrorelix] (Ac-[d2Nal][dPhe(4-Cl)][d3Pal]SY[dCit]LRP[dA]-NH2)
- TNF-α [1]: possible reduction
- primary end-point with regard to clinical response [1]: did not meet the primary end-point
- CRP ([2]; at 12 weeks): 18 mg/L
- ESR ([2]; at 12 weeks): 28 mm
- rheumatoid factor level ([2]; at 12 weeks): 111 kIU/L
- Disease activity score (DAS) ([2]; at 12 weeks, 0.5 then 0.75 mg sc daily): 5.5
- CRP ([2]; before Cetrorelix): 41 mg/L
- Disease activity score (DAS) ([2]; before Cetrorelix): 6.1
- ESR ([2]; before Cetrorelix): 35 mm
- rheumatoid factor level ([2]; before Cetrorelix): 137 kIU/L
- synovitis in the knee joint on ultrasound [3]: decrease
- P1NP mean difference vs placebo ([4]; by day 10, 95% CI −6.62, −0.29, p=0.033): -3.45 µg/L
- P1NP change ([4]; cetrorelix group (n=48), 5 mg days 1-2, 3 mg days 3-5, by day 10): -4.21 µg/L
- disease activity markers and TNF-α (log pg/mL) ([4]; cetrorelix vs placebo): significant reductions
- age at death (mice): higher
- atherosclerosis, osteoporosis and systemic inflammation (mice): less

Compound: O=P1(N(CCCl)CCCl)NCCCO1 (stereo not drawn) [Cyclophosphamide]
- digital ulcers, average ([5]; over a period of 12 months): 9 ulcers
- digital ulcers, average ([5]; start): 7 ulcers

Compound: CONC(=O)Nc1ccc(-c2sc3c(c2CN(C)C)c(=O)n(-c2ccc(OC)nn2)c(=O)n3Cc2c(F)cccc2F)cc1 [Relugolix]
- Eular response ([6]; Relugolix 250 mg daily for 12 weeks, assessment at 4 months): Good Eular Response
- Disease activity score (DAS) ([6]; Relugolix 250 mg daily for 12 weeks, assessment at 4 months (remission)): 2.5
- Disease activity score (DAS) ([6]; before Relugolix): 3.5
- BASDAI ([7]; Relugolix 400 mg daily, at 12 weeks (remission)): 1.2
- BASDAI ([7]; baseline): 5

Compound: CN(C)CCC=C1c2ccccc2CCc2ccccc21 [amitriptyline]
- effect on pain in extremities [8]: no effect

Compound: Cn1cnc([N+](=O)[O-])c1Sc1ncnc2nc[nH]c12 [azathioprine]
- effect on pain in extremities [8]: not effective

Compound: NCC1(CC(=O)O)CCCCC1 [gabapentin]
- effect on pain in extremities [8]: no effect

Compound: O[C@H]1[C@H](O)[C@@H](O)[C@H](O)[C@@H](O)[C@H]1O [inositol]
- median PASI score [9]: 4.9

Compound: CN(Cc1cnc2nc(N)nc(N)c2n1)c1ccc(C(=O)N[C@@H](CCC(=O)O)C(=O)O)cc1 [methotrexate]
- effect on pain in extremities [8]: not effective

Compound: COc1c(C)c2c(c(O)c1C/C=C(\C)CCC(=O)OCCN1CCOCC1)C(=O)OC2 [mycophenolate mofetil]
- effect on pain in extremities [8]: not effective

Compound: CC(C)C[C@H](CN)CC(=O)O [pregabalin]
- effect on pain in extremities [8]: no effect

Compound: Enbrel
- disease activity (BASDAI) ([10]; May 2013, on initiating Enbrel): 7.6
- disease activity (BASDAI) ([10]; after Enbrel treatment): 8.3

Compound: Golilimumab: TNF-alpha inhibitor
- disease activity score (BASDAI) ([10]; June 2012 on Golilimumab): 6.6
- disease activity score (BASDAI) ([10]; May 2013 on Golilimumab, effect worn off): 7.6
- disease activity score (BASDAI) ([10]; October 2010, on initiating Golilimumab): 8.9

Compound: infliximab: anti-tumour necrosis factor-α
- Fecal calprotectin concentration (patient with colitis): decreases significantly

Reference: patent publication US10821152B2, “Methods, agents and compositions for treatment of inflammatory conditions” (Betanien Hospital, priority 2014, dated 2020)
